Assays:
Dd2b2^pfmdr1 K1065N = format: cell-based, Plasmodium falciparum; conditions: Dd2b2^pfmdr1 K1065N vs Dd2b2^WT
Protocol: ^[a] 72-h [^3H] hypoxanthhine incorporation assay; Data is expressed as mean±s.d. The assay was performed in three independent biological experiments, each in biological duplicates
P. falciparum asexual blood stage parasites were cultured in human red blood cells (RBC, Blutspende SRK, Zurich) at a hematocrit of 5% in RPMI 1640 medium. The RPMI 1640 medium (ThermoFisher Scientific #51800−043) was supplemented with the following: 24 mM NaHCO3 (pH 7.3, Sigma-Aldrich #31437−500G-R), 25 mM Hepes (Sigma-Aldrich #H4034−500G), 0.36 mM hypoxanthine (Sigma-Aldrich # H9377−25G), 100 µg mL^-1 neomycin (Sigma-Aldrich #N6386−100G) and 0.5% Albumax II (Thermo Fisher #11021−045). Additionally, 2 mM choline chloride (279 mg/L, Sigma-Aldrich #C7527−100G) was added to the culture to block the induction of sexual commitment as described. ^[31^] The RPMI 1640 medium and components were dissolved in water (Milli-Q purified), stirred for at least 3 h, and then sterile filtered (0.22 μm pore size) with a bottle top filter (Corning # 431118). Parasite cultures were maintained in an atmosphere of 3% O2, 4% CO2, and 93% N2 in air-tight chambers at 37 °C. The [^3H]-hypoxanthine incorporation assay was used to test compound activity in the specific parasite lines as described.^[32^] Briefly, compounds were dissolved in DMSO (10 mM) and diluted in a hypoxanthine-free culture medium. A limiting dilution was performed over a 64-fold range (6-step twofold dilution) in a 96-well plate in duplicates. For every starting concentration, a limiting dilution was performed over a 64-fold range (6-step twofold dilution) in a 96-well plate in two biological duplicates. Parasites were added at 100 µL to each well containing the compound to obtain a final parasitemia of 0.3% and haematocrit of 1.25%. The plates were incubated for 48 h before 0.25 µCi of [^3H]-hypoxanthine was added per well for an additional 24 h. Parasites were harvested on a glass-fiber filter with a Microbeta FilterMate cell harvester (Perkin Elmer, Waltham, USA) and radioactivity was counted using a MicroBeta2 liquid scintillation counter (Perkin Elmer, Waltham, US). The results were recorded, processed by subtraction of the mean background signal obtained from the uninfected RBC controls and expressed as percentage of untreated controls. The fifty percent inhibitory concentration (IC50) was calculated by using nonlinear, four parameter (variable slope) curve fitting as described ^[33^] after importing into GraphPad Prism (version 8.3.0).

[1] = system: 60S ribosomal protein L22 (W7K6D9); test: iSPP profiling, P. falciparum lysate; format: binding, Plasmodium falciparum
Protocol: (§1) P. falciparum NF54 lysates were extracted as described in ^[26^] . The parasite asynchronous culture was extracted once 3-5% parasitemia was reached. Saponin lysis was done as described in 2.2.10. Once the parasite pellet was obtained, 2.5 volumes of ice-cold lysis buffer (50 mM Tris/HCl pH 7.5 (Avantor), 5% glycerol (Sigma-Aldrich), 150 mM NaCl (Carl Roth), 1.5 mM MgCl2 (Sigma-Aldrich), 1 mM DTT (Carl Roth), 0.8% IGEPAL CA-630 (Sigma-Aldrich), 1X Halt Protease and Phosphatase Inhibitor-Cocktails EDTA-free (Thermo Fisher Scientific)) was added to the parasite pellet. The lysate solution was subjected to three cycles of flash freeze-thaw with liquid nitrogen and ddH2O at RT. The lysates were centrifuged at 20,000 g for 20 minutes at 4 °C. The soluble protein fraction (supernatant) was collected and the protein content was quantified using the BCA assay (Pierce™ BCA Protein Assay Kit, Thermo Fisher Scientific). The lysate was stored at -80 °C until further use.
(§2) The P. falciparum lysate was thawed on ice and diluted to 0.8 mg/mL. […] Subsequently, the samples were incubated at room temperature for 30 minutes using a rotating mixer. After distribution into a 96-well plate, the samples were treated with increasing concentrations of A.E.A. (v/v) ranging from 14% to 28% (14, 16, 18, 20, 22, 24, 26, and 28%). Following a 20-minute incubation at 37°C with shaking at 750 rpm, the samples were centrifuged at 4400 g for 35 minutes to remove precipitated proteins. The soluble fractions were then pooled in equal volumes into a single sample using the Bravo Automated Liquid Handling Platform. The pooled samples were subsequently prepared for LC-MS/MS analysis.
(§3) The raw LFQ-DIA intensity values of biological replicates across all conditions were normalized to the median abundance using Excel. The normalized values were then log2 transformed in Perseus (v2.0.10.0).^[58^] Missing values were imputed from a normal distribution (width 0.3, down shift 1.5), and p-values were obtained using a two-sample t-test over replicates with a permutation-based false discovery rate correction (FDR 0.05). Volcano plots were generated in RStudio using the EnhancedVolcano package (v. 1.20.0), ^[59^] plotting proteins by statistical significance (y-axis: –Log10 p-value) versus the magnitude of change (x-axis: log2 fold change of protein intensities for each compound condition relative to the vehicle control). The heatmap was generated in Perseus (v2.0.10.0). Dose-dependent curves were generated using normalized protein intensity values, expressed as a ratio to the vehicle control. Plots were created in GraphPad Prism (v8.3.0) using a nonlinear regression model.

[2] = system: Uncharacterized protein (W7JXC3); test: iSPP profiling, P. falciparum lysate; format: binding, Plasmodium falciparum
Protocol: as §1, §2, §3

DnaJ protein (W7JVI6) = test: iSPP profiling, P. falciparum lysate; format: binding, Plasmodium falciparum
Protocol: as §1, §2, §3

[3] = system: Ubiquitin-protein ligase (W7JWT0); test: iSPP profiling, P. falciparum lysate; format: binding, Plasmodium falciparum
Protocol: as §1, §2, §3

[4] = system: Phospholipid-transporting ATPase (W7JSF3;W7K4C4); test: iSPP profiling, P. falciparum lysate; format: binding, Plasmodium falciparum
Protocol: as §1, §2, §3

[5] = system: ATP-dependent zinc metalloprotease FTSH (W7JKR1); test: iSPP profiling, P. falciparum lysate; format: binding, Plasmodium falciparum
Protocol: as §1, §2, §3

With CN1CCN(Cc2ccc(O)c(NC(=O)c3cccc(Oc4cc(C(F)(F)F)ccn4)c3)c2)CC1 [Compound 31, N-(2-hydroxy-5-((4-methylpiperazin-1-yl)methyl)phenyl)-3-((4-(trifluoromethyl)pyridin-2-yl)oxy)benzamide] the “IC50 fold shift relative to parental clone” value (Dd2b2^pfmdr1 K1065N) was 20.2, the log2FC ([1]; 10 µM) was 0.72 and the log2FC ([1]; 50 µM) was 0.75. The log2FC ([1]; 100 µM) was 0.65, the log2FC ([1]; 10^-2 µM) was 0.61 and the log2FC ([1]; 10^-3 µM) was 0.18. The log2FC ([2]; 10 µM) was 0.50, the log2FC ([2]; 50 µM) was 0.70 and the log2FC ([2]; 100 µM) was 0.40. It also gave a log2FC ([2]; 10^-2 µM) of 0.36, a log2FC ([2]; 10^-3 µM) of 0.02 and a log2FC (DnaJ protein (W7JVI6); 10 µM) of 0.38. For the same molecule, the log2FC (DnaJ protein (W7JVI6); 50 µM) was 0.51, the log2FC (DnaJ protein (W7JVI6); 100 µM) was 0.40 and the log2FC (DnaJ protein (W7JVI6); 10^-2 µM) was 0.30. It also gave a log2FC (DnaJ protein (W7JVI6); 10^-3 µM) of 0.12, a log2FC ([3]; 10 µM) of 0.52 and a log2FC ([3]; 50 µM) of 0.87. It also gave a log2FC ([3]; 100 µM) of 0.59, a log2FC ([3]; 10^-2 µM) of 0.50 and a log2FC ([3]; 10^-3 µM) of 0.25. It also gave a log2FC ([4]; 10 µM) of 0.33, a log2FC ([4]; 50 µM) of 0.36 and a log2FC ([4]; 100 µM) of 0.30. It also gave a log2FC ([4]; 10^-2 µM) of 0.36, a log2FC ([4]; 10^-3 µM) of 0.20 and a log2FC ([5]; 10 µM) of 0.49. It also gave a log2FC ([5]; 50 µM) of 0.64, a log2FC ([5]; 100 µM) of 0.46 and a log2FC ([5]; 10^-2 µM) of 0.46. For the same molecule, the log2FC ([5]; 10^-3 µM) was 0.20.
